Key:
[1] = system: housefly (Musca domestica) antenna; test: GC-EAD antennal response, housefly; conditions: synthetic mixture, about 100 ng of each compound
Aedes aegypti = test: Y-tube olfactometer behavioral bioassay (spatial repellency); type: in vivo; conditions: for Number of mosquitoes in each arm: Blank / Number of mosquitoes in each arm: Bottom / Number of mosquitoes in each arm: Repellent: Aedes aegypti females, release rate per chemical (1-60 mg/day), 10 min; for Number of mosquitoes in each arm: Repellent: two replicates pooled; for SAI (Spatial Activity Index): Aedes aegypti, (Nc − Nt)/(Nc + Nt), −1 to 1, zero indicating no response
Summary of the method: (§1)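 Female insects (25-40 per run; mosquitoes 6-10 days old, sand flies 3-10 days) released into a CO2-baited Y-tube holding a treatment dispenser in one arm and a blank in the other; arm counts taken after 10 min at 23-25° C. Arms swapped in a repeat run; pooled data tested by χ2 (df=1).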

Anopheles stephensi = test: as above; type: in vivo; conditions: for Number of mosquitoes in each arm: Blank / Number of mosquitoes in each arm: Bottom / Number of mosquitoes in each arm: Repellent: Anopheles stephensi females; for SAI (Spatial Activity Index): Anopheles stephensi
Summary of the method: as §1

Phlebotomus papatasi = test: as above; type: in vivo; conditions: for SAI (Spatial Activity Index): Phlebotomus papatasi; for Number of mosquitoes in each arm: Repellent: Phlebotomus papatasi (sand fly) females, release rate per chemical (1-35 mg/day); for Number of mosquitoes in each arm: Repellent / Number of mosquitoes in each arm: Blank / Number of mosquitoes in each arm: Bottom: 10 min; for Number of mosquitoes in each arm: Blank / Number of mosquitoes in each arm: Bottom: Phlebotomus papatasi females, release rate per chemical
Summary of the method: as §1

[2] = system: female antennae of sand fly Phlebotomus papatasi and mosquitoes Aedes aegypti, Anopheles gambiae, Anopheles stephensi; test: GC-EAD responses of sand fly and three mosquitoes to synthetic mixtures; conditions: about 100 ng of each compound, on one or more of the sand fly or the mosquitoes, FIGS. 9 and 10
Summary of the method: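 Female antennae recorded by GC-EAD (split with FID) against synthetic mixtures with about 100 ng of each compound, 1-octen-3-ol as positive control; polar Innowax column, 50° C 2 min then 10° C/min to 240° C. Effluent in humidified air at 0.5 liter/min over severed-head preparation with Ringer-filled electrodes.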

[3] = female housefly antenna, FIG. 3
[4] = release rate per chemical (1-60 mg/day; β-Caryophyllene 10 mg/day), 10 min
[5] = release rate per chemical (β-Caryophyllene 10 mg/day), 10 min

| Structure (SMILES) | GC-EAD antennal activity [1, 3] | GC-EAD antennal activity ([1]; male housefly antenna, FIG. 4) | Number of mosquitoes in each arm: Blank (Aedes aegypti) | Number of mosquitoes in each arm: Bottom (Aedes aegypti) | Number of mosquitoes in each arm: Repellent (Aedes aegypti) | SAI (Spatial Activity Index) (Aedes aegypti) | Number of mosquitoes in each arm: Blank (Anopheles stephensi; release rate 35 mg/day, PE-Bag) | Number of mosquitoes in each arm: Bottom (Anopheles stephensi; release rate 35 mg/day, PE-Bag) | Number of mosquitoes in each arm: Repellent (Anopheles stephensi; release rate 35 mg/day, PE-Bag) | Number of mosquitoes in each arm: Repellent (Anopheles stephensi; [4]) | Number of mosquitoes in each arm: Blank (Anopheles stephensi; [5]) | Number of mosquitoes in each arm: Bottom (Anopheles stephensi; [5]) | SAI (Spatial Activity Index) (Anopheles stephensi; release rate 35 mg/day) | SAI (Spatial Activity Index) (Anopheles stephensi; β-Caryophyllene 10 mg/day) | SAI (Spatial Activity Index) (Phlebotomus papatasi) | Number of mosquitoes in each arm: Repellent (Phlebotomus papatasi) | Number of mosquitoes in each arm: Blank (Phlebotomus papatasi) | Number of mosquitoes in each arm: Bottom (Phlebotomus papatasi) | GC-EAD antennal activity [2] |
| --- | --- | --- | --- | --- | --- | --- | --- | --- | --- | --- | --- | --- | --- | --- | --- | --- | --- | --- | --- |
| C=C1CC/C=C(\C)CC[C@@H]2[C@@H]1CC2(C)C [β-Caryophyllene, β-caryophyllene] | active | EAD-active | 20 | 40 | 6 | 0.54 | 22 | 43 | 5 | 19 | 23 | 26 | 0.63 | 0.10 | 0.57 | 9 | 33 | 25 | antennally active |
| C=C1C2CCC3[C@H]2C(C)(C)CCC[C@]13C (single isomer, unassigned; (+)) [(+)-Longifolene] | active |  | 20 | 37 | 5 | 0.60 |  |  |  | 9 | 23 | 29 |  | 0.44 | 0.55 | 5 | 17 | 41 | antennally active |
| C=C1CC/C=C(/C)CC[C@@H]2[C@@H]1CC2(C)C [Isocaryophyllene, isocaryophyllene] |  | EAD-active | 35 | 31 | 8 | 0.63 |  |  |  | 8 | 21 | 26 |  | 0.45 | 0.23 | 40 | 64 | 34 | antennally active |

— US8057829B2, “Methods for repelling insects using sesquiterpene hydrocarbons and their derivatives” (Sterling International Inc., priority 2008, dated 2011)
